Measured values: US5686426A, “Dicarboxymethylated glycolipid derivatives as cell adhesion inhibitors” (Bristol-Myers Squibb Company, priority 1994, dated 1997)

Tests used:
P-selectin = assay: P-Selectin Adhesion Receptor Binding (cell-free ELISA, inhibition of P-selectin binding to immobilized sulfatides)
Text: P-selectin (GMP140, granule membrane protein-140, PADGEM, or CD62) is a calcium-dependent transmembrane protein found in alpha granules of endothelial cells and platelets. It is an inducible selectin produced on activated endothelium and platelets which recognize alpha(2-3)sialylated and alpha(1-3)fucosylated lactosaminoglycans which include the sequence, Lewis x (Zhou et al., J. Cell. Biol., (1991) 115 (2): 557-564) and sulfatides (3-sulfated galactosyl ceramides, Aruffo, et al., Cell (1991) 67: 35-44). P-selectin may be responsible for the initial adhesion events between endothelium and neutrophils as evidenced by leukocyte rolling induced by P-selectin in flow cells (Lawrence, M., and T. Springer, Cell (1991) 65: 859-873).
Based on the availability of soluble forms of P-selectin prepared as described by Aruffo, A., et al., Cell, 67, 35-44 (1991), a binding ELISA based assay modified from Foxall, et al., J., Cell Biol., 117, 895-902 (1992) was developed to measure inhibitors of P-selectin binding to immobilized sulfatides. Such inhibitors were tested in the assay described below.
0.1 ml of sulfatide (SIGMA) at 1 μg/ml in MeOH was added to 48 wells of a 96-well ELISA plate (ProBind, Falcon) and allowed to dry overnight at room temperature. Another set of 48 wells were incubated with the solvent (methanol, Fisher Scientific). The next day the antigen/solvent coated plates were blocked for 1.5 hours at room temperature with 5% BSA (ICN) in buffer containing 20 mM Hepes, 1 mM CaCl2 and 0.15M NaCl, pH 8.0. Wild type P-selectin was first mixed with HRP-conjugated goat anti-human IgG (1:5000 dilution, Fisher Scientific), and incubated for 30 minutes at 37° C. in buffer containing 20 mM Hepes, 0.15M NaCl, 1% BSA and 1 mM CaCl2, pH 8.0 prior to addition to the BSA blocked plates. Following the 30 minute preincubation, the fusion protein-HRP conjugate immunocomplexes were incubated on the blocked antigen coated plates for 45 minutes at 37° C. in the presence or absence of the test compounds and then washed to remove any unbound proteins. Bound complexes were detected by addition of substrate buffer (95 mM NaOAc.3H2 O, 5 mM citric acid monohydrate, 1.4 mM urea/H2 O2) containing 3, 3', 5, 5' Tetramethylbenzidine (SIGMA). Reactions were stopped by the addition of 3N sulfuric acid and the absorbance read on an ELISA reader at dual wavelengths 450 and 630 nm. The efficacy of these compounds was compared to that of sulfatide (positive control) or to MeOH (negative control). The data is obtained as percent inhibition of specific binding [formula] and a plot of dose vs. percent inhibition of Rg binding is generated in which IC50 (μM) is calculated and reported as cell free data in Table 1.

[1] = tested on: HL-60 cells / activated platelets (P-selectin); assay: HL-60 Platelet Cell Adhesion Assay; assay type: cell-based; conditions: HL-60 cell adhesion to thrombin-activated human platelets
Experimental: HL-60 cells, obtained from American Type Culture Collection, were cultured in RPMI 1640 medium (GIBCO) supplemented with 20% fetal calf serum (Sigma) and 50 μg/ml gentamicin (GIBCO). Cells in log phase growth were harvested, washed and resuspended in Tyrodes buffer containing 5 mM HEPES and 0.2% bovine serum albumin and were fixed with 1% buffered formalin.
Blood from normal human donors was anticoagulated with citrate, layered over 1-Step Platelets (Accurate Chemical Co.), and centrifuged at 350 g for 20 minutes at room temperature. The platelet band was collected, diluted in 2 volumes of Tyrode's Buffer with 5 mM HEPES, 10 mM EDTA, and 0.2% BSA (pH 7.4) (THEB) and centrifuged at 600 g for 10 minutes. The platelet pellet was resuspended in THEB and incubated at room temperature for 1 hour. Calcein-acetoxy methylester (Calcein-Am, Molecular Probes) was added to the platelets at a final concentration of 10 μM and incubated for 10 minutes at 37° C. to label the platelets. Without washing, the platelets were counted on a Coulter counter model ZM, and the concentration was adjusted to 1×10^7 /ml. The platelets were activated with 2 U/ml of human thrombin for 10 minutes in Tyrode's containing 2 mM CaCl2, 5 mM HEPES, and 0.2% BSA (pH 7.4) (THB) at 37° and immediately fixed with 1% buffered formalin for 1 to 2 hours at room temperature. A small aliquot of labeled platelets was removed before activation and designated as non-activated.
Both platelets and HL-60 were washed in a ≥5 fold excess volume of Hanks Balanced Salt Solution (HBSS), resuspended in THB and counted. Cell concentrations were adjusted to 2×10^7 /ml for platelets and 4×10^6 /ml for HL-60, this ratio determined to be optimum for platelet: HL-60 cell adhesion. Compounds were incubated with 50 μl of platelets for 30 minutes at room temperature before addition of 50 μl of HL-60. This ratio of 5:1 platelets to HL-60 was incubated for 30 minutes at room temperature before addition of 0.2 ml of THB to increase the volume so the samples could be analyzed on a FACScan cytometer (Becton Dickinson). Non-activated platelets, and activated platelets with 10 mM EDTA were included as controls. Data were collected within a region set for the forward scatter channel corresponding to HL-60 size events.
The percent HL-60 cells which contained bound platelets was determined for each test condition. The inhibition of binding was determined by comparison to standards which were treated with vehicle alone (representing 0% inhibition) and standards whose specific binding had been blocked by the use of EDTA (representing 100% inhibition), by the following formula: [formula] where x=HL-60 cells containing bound platelets in the presence of the compound;
b=HL-60 cells containing bound platelets in the presence of EDTA;
a=HL-60 cells containing bound platelets in presence of compound vehicle;
z=% inhibition of platelet: HL-60 cell adhesion

CCCCCCCCCCCCC/C=C/[C@@H](OC(=O)c1ccccc1)[C@H](CO[C@@H]1O[C@H](COCC(=O)O)[C@H](OCC(=O)O)[C@H](OC(=O)c2ccccc2)[C@H]1OC(=O)c1ccccc1)NC(=O)CCCCCCCCCCCCCCC [Example 16, (2S,3R,4E)-2-Hexadecanoylamino-3-benzoyloxy-1-(4,6-di-O-carboxymethyl-2,3-di-O-benzoyl-β-D-galactopyranoside)-4-octadecene]
IC50 (P-selectin): 3.5 µM
IC50 [1]: 10.1 µM

CCCCCCCCCCCCC/C=C/[C@@H](OC(=O)c1ccccc1)[C@H](CO[C@@H]1O[C@H](COCC(=O)O)[C@H](OCC(=O)O)[C@H](OC(=O)c2ccccc2)[C@H]1O)NC(=O)CCCCCCCCCCCCCCC [Example 18, (2S,3R,4E)-3-Benzoyloxy-2-hexadecanoylamino-1-[3-O-benzoyl-4,6-di-O-carboxymethyl-β-D-galactopyranosyloxy]-4-octadecene]
IC50 (P-selectin): < 0.03 µM
IC50 [1]: 7 µM

CCCCCC/C=C/[C@@H](OC(=O)c1ccccc1)[C@H](CO[C@H]1O[C@H](COCC(=O)O)[C@H](OCC(=O)O)[C@H](OC(=O)c2ccccc2)[C@H]1OC(=O)c1ccccc1)NC(=O)CCCCCCCCC(=O)OC [Example 8, (2S,3R,4E)-3-Benzoyloxy-2-(9-methoxycarbonyl-nonanoylamino)-1-(2,3-di-O-benzoyl-4,6-di-O-carboxymethyl-α-D-galactopyranosyloxy)-4-undecene]
IC50 (P-selectin): > 50 µM
IC50 [1]: > 100 µM

CCCCCCCCCCCCC/C=C/[C@@H](OC(=O)c1ccccc1)[C@H](CO[C@H]1O[C@H](COCC(=O)O)[C@H](OCC(=O)O)[C@H](OC(=O)c2ccccc2)[C@H]1OC(=O)c1ccccc1)NC(=O)CCCCCCCCCCCCCCC [Example 2, (2S,3R,4E)-3-Benzoyloxy-2-hexadecanoylamino-1-[2,3-di-O-benzoyl-4,6-di-O-carboxymethyl-α-D-galactopyranosyloxy]-4-octadecene]
IC50 (P-selectin): 0.92 µM
IC50 [1]: 32 µM

CCCCCCCCCCCCC/C=C/[C@@H](OC(=O)c1ccccc1)[C@H](CO[C@H]1O[C@H](COCC(=O)O)[C@H](OCC(=O)O)[C@H](O)[C@H]1OC(=O)c1ccccc1)NC(=O)CCCCCCCCCCCCCCC [Example 14, (2S,3R,4E)-3-Benzoyloxy-2-hexadecanoylamino-1-[2-O-benzoyl-4,6-di-O-carboxymethyl-α-D-galactopyranosyloxy]-4-octadecene]
IC50 (P-selectin): 0.7 µM
IC50 [1]: 20 µM
